Measured values published in PMC7438494 (Communications Biology, 2020).
Like-named read-outs stand apart in the source and are kept apart here.

Target: human ATP synthase (Homo sapiens, UniProt P00846+P05496)
Experiment: biochemical
Assay type: biochemical

How did the activity at 1 µM (Human Mito, 4th exp (18_12_26), BDQ 1 uM, read-out: Cyanide sensitive % activity) turn out when `COc1nc2ccc(Br)cc2cc1[C@@H](c1ccccc1)[C@@](O)(CCN(C)C)c1cccc2ccccc12` [BDQ, Bedaquiline] was run?
The activity at 1 µM was 8.67%.

And the activity at 2 µM (Human Mito, 4th exp (18_12_26), BDQ 2 uM, read-out: Cyanide sensitive % activity)?
The activity at 2 µM was 2.82%.

And the activity at 5 µM (Human Mito, 4th exp (18_12_26), BDQ 5 uM, read-out: Cyanide sensitive % activity)?
Its activity at 5 µM is -2.55%.

And the activity at 10 µM (Human Mito, 4th exp (18_12_26), BDQ 10 uM, read-out: Cyanide sensitive % activity)?
The activity at 10 µM was 0%.

And the Cyanide sensitive (Human Mito, 5th exp (19), BDQ in DMSO, Bedaquiline 5e-5 μM, 60 min)?
Its Cyanide sensitive is 8.081 nmol/min/mg.

And the Cyanide sensitive (Human Mito, 5th exp (19), BDQ in DMSO, Bedaquiline 0.0005 μM, 60 min)?
Its Cyanide sensitive is 7.799 nmol/min/mg.

And the activity at 0.0005 µM (Human Mito, 5th exp (19), BDQ in DMSO, Bedaquiline 0.0005 μM, 60 min, read-out: % activity)?
Its activity at 0.0005 µM is 75.5%.

What about the Cyanide sensitive (Human Mito, 5th exp (19), BDQ in DMSO, Bedaquiline 0.005 μM, 60 min) of the same compound?
Its Cyanide sensitive is 7.932 nmol/min/mg.

And the activity at 0.005 µM (Human Mito, 5th exp (19), BDQ in DMSO, Bedaquiline 0.005 μM, 60 min, read-out: % activity)?
Its activity at 0.005 µM is 71.9%.

What about the Cyanide sensitive (Human Mito, 5th exp (19), BDQ in DMSO, Bedaquiline 0.1 μM, 60 min) of the same compound?
The Cyanide sensitive was 7.371 nmol/min/mg.

And the activity at 0.1 µM (Human Mito, 5th exp (19), BDQ in DMSO, Bedaquiline 0.1 μM, 60 min, read-out: % activity)?
The activity at 0.1 µM was 76.1%.

And the Cyanide sensitive (Human Mito, 5th exp (19), BDQ in DMSO, Bedaquiline 0.2 μM, 60 min)?
Its Cyanide sensitive is 5.1485 nmol/min/mg.

And the activity at 0.2 µM (Human Mito, 5th exp (19), BDQ in DMSO, Bedaquiline 0.2 μM, 60 min, read-out: % activity)?
Its activity at 0.2 µM is 61.2%.

What about the Cyanide sensitive (Human Mito, 5th exp (19), BDQ in DMSO, Bedaquiline 0.5 μM, 60 min) of the same compound?
The Cyanide sensitive was 7.123 nmol/min/mg.

And the activity at 0.5 µM (Human Mito, 5th exp (19), BDQ in DMSO, Bedaquiline 0.5 μM, 60 min, read-out: % activity)?
The activity at 0.5 µM was 73.7%.

What about the Cyanide sensitive (Human Mito, 5th exp (19), BDQ in DMSO, Bedaquiline 0.65 μM, 60 min) of the same compound?
The Cyanide sensitive was 5.712 nmol/min/mg.

What about the activity at 0.65 µM (Human Mito, 5th exp (19), BDQ in DMSO, Bedaquiline 0.65 μM, 60 min, read-out: % activity) of the same compound?
Its activity at 0.65 µM is 69.7%.

And the Cyanide sensitive (Human Mito, 5th exp (19), BDQ in DMSO, Bedaquiline 1 μM, 60 min)?
The Cyanide sensitive was -0.04135 nmol/min/mg.

And the activity at 1 µM (Human Mito, 5th exp (19), BDQ in DMSO, Bedaquiline 1 μM, 60 min, read-out: % activity)?
The activity at 1 µM was 11.1%.

And the Cyanide sensitive (Human Mito, 5th exp (19), BDQ in DMSO, Bedaquiline 2 μM, 60 min)?
The Cyanide sensitive was -0.9975 nmol/min/mg.

And the activity at 2 µM (Human Mito, 5th exp (19), BDQ in DMSO, Bedaquiline 2 μM, 60 min, read-out: % activity)?
The activity at 2 µM was 5%.

What about the Cyanide sensitive (Human Mito, 5th exp (19), BDQ in DMSO, Bedaquiline 5 μM, 60 min) of the same compound?
Its Cyanide sensitive is -2.758 nmol/min/mg.

And the activity at 5 µM (Human Mito, 5th exp (19), BDQ in DMSO, Bedaquiline 5 μM, 60 min, read-out: % activity)?
Its activity at 5 µM is 0.69%.

And the Cyanide sensitive (Human Mito, 5th exp (19), BDQ in DMSO, Bedaquiline 10 μM, 60 min)?
The Cyanide sensitive was -0.848 nmol/min/mg.

And the activity at 10 µM (Human Mito, 5th exp (19), BDQ in DMSO, Bedaquiline 10 μM, 60 min, read-out: % activity)?
The activity at 10 µM was 3.96%.

And the activity at 0.0005 µM (Human Mito, 5th exp (19_01_02), BDQ 0.0005 uM, read-out: Cyanide sensitive % activity)?
Its activity at 0.0005 µM is 75.5%.

And the activity at 0.005 µM (Human Mito, 5th exp (19_01_02), BDQ 0.005 uM, read-out: Cyanide sensitive % activity)?
Its activity at 0.005 µM is 71.9%.

What about the activity at 0.1 µM (Human Mito, 5th exp (19_01_02), BDQ 0.1 uM, read-out: Cyanide sensitive % activity) of the same compound?
The activity at 0.1 µM was 76.1%.

What about the activity at 0.2 µM (Human Mito, 5th exp (19_01_02), BDQ 0.2 uM, read-out: Cyanide sensitive % activity) of the same compound?
Its activity at 0.2 µM is 61.2%.

What about the activity at 0.5 µM (Human Mito, 5th exp (19_01_02), BDQ 0.5 uM, read-out: Cyanide sensitive % activity) of the same compound?
The activity at 0.5 µM was 73.7%.

And the activity at 0.65 µM (Human Mito, 5th exp (19_01_02), BDQ 0.65 uM, read-out: Cyanide sensitive % activity)?
The activity at 0.65 µM was 69.7%.

And the activity at 1 µM (Human Mito, 5th exp (19_01_02), BDQ 1 uM, read-out: Cyanide sensitive % activity)?
The activity at 1 µM was 11.1%.

What about the activity at 2 µM (Human Mito, 5th exp (19_01_02), BDQ 2 uM, read-out: Cyanide sensitive % activity) of the same compound?
Its activity at 2 µM is 5%.

And the activity at 5 µM (Human Mito, 5th exp (19_01_02), BDQ 5 uM, read-out: Cyanide sensitive % activity)?
Its activity at 5 µM is 0.69%.

And the activity at 10 µM (Human Mito, 5th exp (19_01_02), BDQ 10 uM, read-out: Cyanide sensitive % activity)?
The activity at 10 µM was 3.96%.

What about the “Cyanide sensitive % activity, Average” value (Human Mito, average of experiments, BDQ 5e-6 uM) of the same compound?
The value was 75.05%.

What about the “Cyanide sensitive % activity, Average” value (Human Mito, average of experiments, BDQ 5e-5 uM) of the same compound?
Its value is 71.33%.

What about the activity at 0.0005 µM (Human Mito, average of experiments, BDQ 0.0005 uM, read-out: Cyanide sensitive % activity, Average) of the same compound?
Its activity at 0.0005 µM is 78.5%.

And the activity at 0.005 µM (Human Mito, average of experiments, BDQ 0.005 uM, read-out: Cyanide sensitive % activity, Average)?
Its activity at 0.005 µM is 68%.

What about the activity at 0.1 µM (Human Mito, average of experiments, BDQ 0.1 uM, read-out: Cyanide sensitive % activity, Average) of the same compound?
The activity at 0.1 µM was 70.6%.

What about the activity at 0.2 µM (Human Mito, average of experiments, BDQ 0.2 uM, read-out: Cyanide sensitive % activity, Average) of the same compound?
The activity at 0.2 µM was 57.6%.

What about the activity at 0.5 µM (Human Mito, average of experiments, BDQ 0.5 uM, read-out: Cyanide sensitive % activity, Average) of the same compound?
The activity at 0.5 µM was 52.1%.

What about the activity at 0.65 µM (Human Mito, average of experiments, BDQ 0.65 uM, read-out: Cyanide sensitive % activity, Average) of the same compound?
The activity at 0.65 µM was 44.5%.

What about the activity at 0.85 µM (Human Mito, average of experiments, BDQ 0.85 uM, read-out: Cyanide sensitive % activity, Average) of the same compound?
The activity at 0.85 µM was 27.4%.

What about the activity at 1 µM (Human Mito, average of experiments, BDQ 1 uM, read-out: Cyanide sensitive % activity, Average) of the same compound?
Its activity at 1 µM is 6.29%.

And the activity at 2 µM (Human Mito, average of experiments, BDQ 2 uM, read-out: Cyanide sensitive % activity, Average)?
The activity at 2 µM was 0.46%.

What about the activity at 5 µM (Human Mito, average of experiments, BDQ 5 uM, read-out: Cyanide sensitive % activity, Average) of the same compound?
The activity at 5 µM was -2%.

What about the activity at 10 µM (Human Mito, average of experiments, BDQ 10 uM, read-out: Cyanide sensitive % activity, Average) of the same compound?
Its activity at 10 µM is 0.62%.

What about the activity at 0.0005 µM (Human Mito, plotted duplicates, first column, BDQ 0.0005 uM, read-out: % activity) of the same compound?
Its activity at 0.0005 µM is 81.5%.

And the activity at 0.005 µM (Human Mito, plotted duplicates, first column, BDQ 0.005 uM, read-out: % activity)?
Its activity at 0.005 µM is 88.5%.

And the activity at 0.1 µM (Human Mito, plotted duplicates, first column, BDQ 0.1 uM, read-out: % activity)?
The activity at 0.1 µM was 71.2%.

And the activity at 0.2 µM (Human Mito, plotted duplicates, first column, BDQ 0.2 uM, read-out: % activity)?
Its activity at 0.2 µM is 59.5%.

And the activity at 0.5 µM (Human Mito, plotted duplicates, first column, BDQ 0.5 uM, read-out: % activity)?
The activity at 0.5 µM was 51.2%.

And the activity at 0.65 µM (Human Mito, plotted duplicates, first column, BDQ 0.65 uM, read-out: % activity)?
The activity at 0.65 µM was 37.6%.

And the activity at 0.85 µM (Human Mito, plotted duplicates, first column, BDQ 0.85 uM, read-out: % activity)?
The activity at 0.85 µM was 33.1%.

And the activity at 1 µM (Human Mito, plotted duplicates, first column, BDQ 1 uM, read-out: % activity)?
The activity at 1 µM was 8.67%.

What about the activity at 2 µM (Human Mito, plotted duplicates, first column, BDQ 2 uM, read-out: % activity) of the same compound?
The activity at 2 µM was 2.82%.

What about the activity at 5 µM (Human Mito, plotted duplicates, first column, BDQ 5 uM, read-out: % activity) of the same compound?
Its activity at 5 µM is -2.55%.

What about the activity at 10 µM (Human Mito, plotted duplicates, first column, BDQ 10 uM, read-out: % activity) of the same compound?
The activity at 10 µM was -2.1%.

And the activity at 0.0005 µM (Human Mito, plotted duplicates, second column, BDQ 0.0005 uM, read-out: % activity)?
Its activity at 0.0005 µM is 75.5%.

And the activity at 0.005 µM (Human Mito, plotted duplicates, second column, BDQ 0.005 uM, read-out: % activity)?
Its activity at 0.005 µM is 71.9%.

And the activity at 0.1 µM (Human Mito, plotted duplicates, second column, BDQ 0.1 uM, read-out: % activity)?
The activity at 0.1 µM was 76.1%.

And the activity at 0.2 µM (Human Mito, plotted duplicates, second column, BDQ 0.2 uM, read-out: % activity)?
The activity at 0.2 µM was 61.2%.

And the activity at 0.5 µM (Human Mito, plotted duplicates, second column, BDQ 0.5 uM, read-out: % activity)?
The activity at 0.5 µM was 58%.

And the activity at 0.65 µM (Human Mito, plotted duplicates, second column, BDQ 0.65 uM, read-out: % activity)?
Its activity at 0.65 µM is 40%.

And the activity at 0.85 µM (Human Mito, plotted duplicates, second column, BDQ 0.85 uM, read-out: % activity)?
Its activity at 0.85 µM is 32.5%.

And the activity at 1 µM (Human Mito, plotted duplicates, second column, BDQ 1 uM, read-out: % activity)?
The activity at 1 µM was 11.1%.

What about the activity at 2 µM (Human Mito, plotted duplicates, second column, BDQ 2 uM, read-out: % activity) of the same compound?
Its activity at 2 µM is 1.13%.

And the activity at 5 µM (Human Mito, plotted duplicates, second column, BDQ 5 uM, read-out: % activity)?
Its activity at 5 µM is 0.69%.

What about the activity at 10 µM (Human Mito, plotted duplicates, second column, BDQ 10 uM, read-out: % activity) of the same compound?
Its activity at 10 µM is 3.96%.

And the “extent of inhibition of ATP synthesis of the human enzyme” value (in words)?
The value was “nearly completely”.

What about the activity at 0.0005 µM (read-out: % activity) of the same compound?
The activity at 0.0005 µM was 89.6%.

And the activity at 0.1 µM (read-out: % activity)?
Its activity at 0.1 µM is 81.7%.

And the activity at 0.2 µM (read-out: % activity)?
The activity at 0.2 µM was 77.1%.

What about the activity at 0.5 µM (read-out: % activity) of the same compound?
The activity at 0.5 µM was 62.5%.

And the activity at 0.85 µM (read-out: % activity)?
The activity at 0.85 µM was 54%.

What about the activity at 1 µM (read-out: % activity) of the same compound?
Its activity at 1 µM is 48.4%.

What about the activity at 2 µM (read-out: % activity) of the same compound?
The activity at 2 µM was 45.8%.

And the activity at 10 µM (read-out: % activity)?
Its activity at 10 µM is 36.3%.

And the inhibition at 0.2 µM (read-out: % inhibition)?
The inhibition at 0.2 µM was 22.9%.

And the inhibition at 0.5 µM (read-out: % inhibition)?
Its inhibition at 0.5 µM is 37.5%.

And the inhibition at 1 µM (read-out: % inhibition)?
The inhibition at 1 µM was 57.4%.

And the inhibition at 2 µM (read-out: % inhibition)?
Its inhibition at 2 µM is 54.2%.

And the inhibition at 10 µM (read-out: % inhibition)?
Its inhibition at 10 µM is 63.7%.
